# Assays:
# [1] = target: Sodium-dependent serotonin transporter (Homo sapiens, UniProt P31645); test: Displacement of [I125]RTI-55 from human SERT transfected in human HEK293 cells; assay type: cell-based
# Homo sapiens [2] = organism: Homo sapiens; test: Selectivity ratio of IC50 for human DAT to IC50 for human SERT
# Homo sapiens [3] = organism: Homo sapiens; test: Selectivity ratio of IC50 for human NET to IC50 for human SERT
# [4] = target: Sodium-dependent noradrenaline transporter (Homo sapiens, UniProt P23975); test: Displacement of [125I]nisoxetine from human NET transfected in human HEK293 cells; assay type: cell-based
# [5] = target: Sodium-dependent dopamine transporter (Homo sapiens, UniProt Q01959); test: Displacement of [I125]RTI-55 from human DAT transfected in human HEK293 cells; assay type: cell-based
# Chain of Sodium-dependent dopamine transporter (Q01959 whole entry): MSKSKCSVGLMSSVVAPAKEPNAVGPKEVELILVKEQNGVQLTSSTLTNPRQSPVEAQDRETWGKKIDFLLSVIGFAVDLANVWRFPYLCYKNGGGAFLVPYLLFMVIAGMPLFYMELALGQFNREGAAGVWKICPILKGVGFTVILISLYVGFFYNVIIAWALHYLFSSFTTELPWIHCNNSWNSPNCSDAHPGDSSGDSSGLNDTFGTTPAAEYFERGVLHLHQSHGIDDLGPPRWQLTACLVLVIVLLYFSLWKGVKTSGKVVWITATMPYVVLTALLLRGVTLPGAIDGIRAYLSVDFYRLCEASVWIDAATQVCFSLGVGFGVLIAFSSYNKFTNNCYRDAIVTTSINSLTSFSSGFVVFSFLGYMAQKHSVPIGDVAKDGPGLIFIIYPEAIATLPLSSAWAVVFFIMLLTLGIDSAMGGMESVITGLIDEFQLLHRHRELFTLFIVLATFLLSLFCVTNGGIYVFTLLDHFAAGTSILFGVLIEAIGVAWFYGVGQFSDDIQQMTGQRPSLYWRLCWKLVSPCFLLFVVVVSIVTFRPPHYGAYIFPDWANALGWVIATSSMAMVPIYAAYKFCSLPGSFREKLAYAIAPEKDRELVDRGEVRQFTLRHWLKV
# Chain of Sodium-dependent serotonin transporter (P31645 whole entry): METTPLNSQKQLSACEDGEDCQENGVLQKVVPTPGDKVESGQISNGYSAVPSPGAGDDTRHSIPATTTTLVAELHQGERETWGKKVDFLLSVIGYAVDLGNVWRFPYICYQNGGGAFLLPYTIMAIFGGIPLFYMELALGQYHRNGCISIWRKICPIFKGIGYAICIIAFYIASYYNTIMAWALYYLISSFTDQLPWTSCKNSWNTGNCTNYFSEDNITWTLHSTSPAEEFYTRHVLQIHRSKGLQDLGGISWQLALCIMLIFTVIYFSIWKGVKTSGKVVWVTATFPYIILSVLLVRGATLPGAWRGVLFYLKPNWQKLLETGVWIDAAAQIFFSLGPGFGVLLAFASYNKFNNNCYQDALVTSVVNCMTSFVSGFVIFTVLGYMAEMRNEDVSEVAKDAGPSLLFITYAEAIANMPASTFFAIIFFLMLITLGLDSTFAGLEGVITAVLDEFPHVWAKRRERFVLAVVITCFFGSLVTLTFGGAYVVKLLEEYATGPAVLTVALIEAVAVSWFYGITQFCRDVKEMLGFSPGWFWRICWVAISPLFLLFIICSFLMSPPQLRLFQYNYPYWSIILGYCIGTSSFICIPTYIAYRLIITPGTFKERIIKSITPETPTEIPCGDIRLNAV
# Chain of Sodium-dependent noradrenaline transporter (P23975 whole entry): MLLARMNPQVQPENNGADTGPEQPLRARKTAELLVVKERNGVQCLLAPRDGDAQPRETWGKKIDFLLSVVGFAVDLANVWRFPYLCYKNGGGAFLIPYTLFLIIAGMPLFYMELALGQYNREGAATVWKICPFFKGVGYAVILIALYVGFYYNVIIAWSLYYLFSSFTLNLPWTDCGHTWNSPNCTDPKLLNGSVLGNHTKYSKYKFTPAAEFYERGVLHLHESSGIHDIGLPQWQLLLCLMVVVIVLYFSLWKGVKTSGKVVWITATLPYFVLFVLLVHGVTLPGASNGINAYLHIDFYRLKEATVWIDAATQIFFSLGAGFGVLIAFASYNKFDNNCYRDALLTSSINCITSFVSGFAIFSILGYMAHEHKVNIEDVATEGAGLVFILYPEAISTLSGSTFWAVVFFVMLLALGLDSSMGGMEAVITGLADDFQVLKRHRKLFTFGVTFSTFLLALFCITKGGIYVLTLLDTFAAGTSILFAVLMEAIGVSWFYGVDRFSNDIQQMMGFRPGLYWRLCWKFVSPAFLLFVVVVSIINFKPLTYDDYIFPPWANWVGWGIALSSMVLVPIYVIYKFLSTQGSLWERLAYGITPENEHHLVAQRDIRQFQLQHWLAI
SMILES,IC50 [1] [nM],also measured
"CN1CCc2ccccc2C1CCc1c[nH]c2ccc(C#N)cc12 (single isomer, unassigned; (+))",4.2,–
CN1CCCCC1CCc1c[nH]c2ccc(C#N)cc12 (configuration not stated),3.9,–
N#Cc1ccc2[nH]cc(CCC3CCCCN3Cc3cc(C(F)(F)F)cc(C(F)(F)F)c3)c2c1 (configuration not stated),46,–
N#Cc1ccc2[nH]cc(CCC3CCCCN3)c2c1 (configuration not stated),2.5,–
CN1CCOCC1CCc1c[nH]c2ccc(C#N)cc12 (configuration not stated),76,–
N#Cc1ccc2[nH]cc(CCC3CCCN3)c2c1 (configuration not stated),17,–
N#Cc1ccc2[nH]cc(CC[C@H]3C[C@@H](Cc4ccccc4)CCN3)c2c1,18,–
N#Cc1ccc2[nH]cc(CCC3CCCCN3CCC(F)(F)F)c2c1 (configuration not stated),80,–
CN1CCCC1CCc1c[nH]c2ccc(C#N)cc12 (configuration not stated),8.1,–
CCN1CCCCC1CCc1c[nH]c2ccc(C#N)cc12 (configuration not stated),4,–
CN1CCc2ccccc2C1CCc1c[nH]c2ccc(F)cc12 (configuration not stated),5.7,–
CN1CC[C@H](Cc2ccccc2)C[C@@H]1CCc1c[nH]c2ccc(C#N)cc12,7.6,–
CN1CCCCC1(C)CCc1c[nH]c2ccc(C#N)cc12 (configuration not stated),2.1,–
COc1ccc2[nH]cc(CCC3c4ccccc4CCN3C)c2c1 (configuration not stated),120,–
"CN1CCc2ccccc2C1CCc1c[nH]c2ccc(C#N)cc12 (single isomer, unassigned; (-)) [listing 1 of 2 here]",–,Ratio IC50 (Homo sapiens [2]): 1500; Ratio IC50 (Homo sapiens [3]): > 20000
CN1CCc2ccccc2C1CCc1c[nH]c2ccc(C#N)cc12 (stereo in doubt; 21a),1.1,–
"CN1CCc2ccccc2C1CCc1c[nH]c2ccc(C#N)cc12 (single isomer, unassigned; (-)) [listing 2 of 2 here]",0.42,IC50 [4]: > 10000 nM; IC50 [5]: 620 nM
CC1(CCc2c[nH]c3ccc(C#N)cc23)CCCCN1 (configuration not stated),17,–
N#Cc1ccc2[nH]cc(CCC3CCCCN3Cc3ccccc3)c2c1 (configuration not stated),7,–
